Each compound was assayed against T1, Adenosine deaminase (Homo sapiens, UniProt P00813) (assay: Compound was evaluated for the inhibition of adenosine deaminase).
T1 sequence (P00813 whole entry): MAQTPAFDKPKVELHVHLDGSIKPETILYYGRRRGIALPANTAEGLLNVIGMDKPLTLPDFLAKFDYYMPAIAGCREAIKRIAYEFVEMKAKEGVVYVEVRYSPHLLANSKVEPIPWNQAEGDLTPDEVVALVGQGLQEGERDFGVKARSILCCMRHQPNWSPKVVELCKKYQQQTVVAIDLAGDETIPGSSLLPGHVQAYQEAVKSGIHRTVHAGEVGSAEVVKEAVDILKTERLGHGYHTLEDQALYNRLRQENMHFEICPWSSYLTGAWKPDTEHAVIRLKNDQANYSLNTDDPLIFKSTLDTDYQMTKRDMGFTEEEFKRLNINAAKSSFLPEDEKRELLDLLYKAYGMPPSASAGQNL

Ki [µM]	SMILES
0.08	CCCCCC[C@@H]([C@H](C)O)n1cnc2c(N)ncnc21
0.122	CCCCCC[C@H]([C@@H](C)O)n1cnc2c(N)ncnc21
0.5	CCCCCC[C@@H]([C@@H](C)O)n1cnc2c(N)ncnc21 (stereo in doubt; (-)) [EHNA]
0.0004	CCCCCC[C@@H]([C@@H](C)O)n1cnc2c(N)ncnc21 (stereo in doubt; erythro) [EHNA]
0.002	CCCCCC[C@H]([C@H](C)O)n1cnc2c(N)ncnc21 [(+)-EHNA]
0.0001	OC[C@H]1O[C@@H](n2cnc3c2N=CNC[C@H]3O)[C@H](O)[C@@H]1O [COFORMYCIN]
